This is an account of results in ChEMBL document CHEMBL5715949, “Discovery of a selective irreversible BMX inhibitor for prostate cancer” (ACS Chem Biol, 2013).

Assay [1] deals with RV-1. The experiment in a line: Down regulation of BMX protein expression in human RV-1 cells expressing BMX C496S mutant at 5 uM incubated for 72 hrs by western blot analysis. It counts as functional, cell-based. In general terms: Immunoblotting shows a protein as a band on a membrane.
Assay [2] concerns the target Serine/threonine-protein kinase TAO2 (Homo sapiens) (UniProt Q9UL54). Put plainly: Inhibition of TAOK2 (unknown origin) assessed as remaining activity at 1 uM by Kinome scan method relative to control.
Assay [3] concerns the target Insulin receptor (Homo sapiens) (UniProt P06213). Put plainly: Inhibition of INSR (unknown origin) assessed as remaining activity at 1 uM by Kinome scan method relative to control.
Assay [4] concerns the target Cyclin-dependent kinase 8 (Homo sapiens) (UniProt P49336). The experiment in a line: Inhibition of CDK8 (unknown origin) assessed as remaining activity at 1 uM by Kinome scan method relative to control.
The target of assay [5] is Interleukin-1 receptor-associated kinase 1 (Homo sapiens) (UniProt P51617). The experiment in a line: Inhibition of IRAK1 (unknown origin) assessed as remaining activity at 1 uM by Kinome scan method relative to control.
Interleukin-1 receptor-associated kinase 1 (Homo sapiens), sequence (P51617 whole entry, looked up): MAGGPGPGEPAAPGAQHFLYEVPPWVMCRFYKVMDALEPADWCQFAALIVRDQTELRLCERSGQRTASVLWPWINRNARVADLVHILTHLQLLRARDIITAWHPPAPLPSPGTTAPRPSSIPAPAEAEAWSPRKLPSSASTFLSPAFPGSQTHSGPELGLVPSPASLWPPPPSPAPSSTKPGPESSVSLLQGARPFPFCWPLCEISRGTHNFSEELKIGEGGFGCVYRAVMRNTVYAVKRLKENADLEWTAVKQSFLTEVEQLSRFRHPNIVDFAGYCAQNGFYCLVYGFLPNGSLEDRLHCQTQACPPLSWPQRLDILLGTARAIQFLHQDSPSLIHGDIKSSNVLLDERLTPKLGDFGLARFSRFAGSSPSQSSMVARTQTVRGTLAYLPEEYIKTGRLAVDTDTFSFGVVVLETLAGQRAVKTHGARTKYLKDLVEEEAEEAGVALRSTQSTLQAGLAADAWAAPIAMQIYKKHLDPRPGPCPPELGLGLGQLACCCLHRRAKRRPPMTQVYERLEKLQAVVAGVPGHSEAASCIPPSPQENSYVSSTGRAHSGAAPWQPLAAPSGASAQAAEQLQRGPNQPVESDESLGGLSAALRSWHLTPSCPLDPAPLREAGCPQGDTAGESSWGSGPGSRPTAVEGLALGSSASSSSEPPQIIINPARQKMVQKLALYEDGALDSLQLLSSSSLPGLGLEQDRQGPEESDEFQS
The target of assay [6] is Fibroblast growth factor receptor 1 (Homo sapiens) (UniProt P11362). Put plainly: Inhibition of FGFR1 (unknown origin) assessed as remaining activity at 1 uM by Kinome scan method relative to control.
The test system of assay [7] is RV-1. The experiment in a line: Antiproliferative activity against human RV-1 cells assessed as reduction in cell viability at 500 to 2500 nM incubated for 5 days in presence of gefitinib by CellTiter-Glo assay. Type of assay: functional, cell-based. Particulars: dose 500-2500 nM, time 5.0 day.
Assay [8] concerns the target Myosin light chain kinase family member 4 (Homo sapiens) (UniProt Q86YV6). Put plainly: Inhibition of MYLK4 (unknown origin) assessed as remaining activity at 1 uM by Kinome scan method relative to control.
Assay [9] deals with Serine/threonine-protein kinase DCLK3 (Homo sapiens) (UniProt Q9C098). The experiment in a line: Inhibition of DCAMKL3 (unknown origin) assessed as remaining activity at 1 uM by Kinome scan method relative to control.
Assay [10] addresses Cyclin-dependent kinase 7 (Homo sapiens) (UniProt P50613). The experiment in a line: Inhibition of CDK7 (unknown origin) assessed as remaining activity at 1 uM by Kinome scan method relative to control.
For assay [11], the system named is Phosphatidylinositol 4,5-bisphosphate 3-kinase catalytic subunit alpha isoform (Homo sapiens), P42336 [H1047Y]. Put plainly: Inhibition of PIK3CA H1047Y mutant (unknown origin) assessed as remaining activity at 1 uM by Kinome scan method relative to control.
Phosphatidylinositol 4,5-bisphosphate 3-kinase catalytic subunit alpha isoform (Homo sapiens), P42336 [H1047Y], sequence (P42336 whole entry H1047Y, canonical isoform): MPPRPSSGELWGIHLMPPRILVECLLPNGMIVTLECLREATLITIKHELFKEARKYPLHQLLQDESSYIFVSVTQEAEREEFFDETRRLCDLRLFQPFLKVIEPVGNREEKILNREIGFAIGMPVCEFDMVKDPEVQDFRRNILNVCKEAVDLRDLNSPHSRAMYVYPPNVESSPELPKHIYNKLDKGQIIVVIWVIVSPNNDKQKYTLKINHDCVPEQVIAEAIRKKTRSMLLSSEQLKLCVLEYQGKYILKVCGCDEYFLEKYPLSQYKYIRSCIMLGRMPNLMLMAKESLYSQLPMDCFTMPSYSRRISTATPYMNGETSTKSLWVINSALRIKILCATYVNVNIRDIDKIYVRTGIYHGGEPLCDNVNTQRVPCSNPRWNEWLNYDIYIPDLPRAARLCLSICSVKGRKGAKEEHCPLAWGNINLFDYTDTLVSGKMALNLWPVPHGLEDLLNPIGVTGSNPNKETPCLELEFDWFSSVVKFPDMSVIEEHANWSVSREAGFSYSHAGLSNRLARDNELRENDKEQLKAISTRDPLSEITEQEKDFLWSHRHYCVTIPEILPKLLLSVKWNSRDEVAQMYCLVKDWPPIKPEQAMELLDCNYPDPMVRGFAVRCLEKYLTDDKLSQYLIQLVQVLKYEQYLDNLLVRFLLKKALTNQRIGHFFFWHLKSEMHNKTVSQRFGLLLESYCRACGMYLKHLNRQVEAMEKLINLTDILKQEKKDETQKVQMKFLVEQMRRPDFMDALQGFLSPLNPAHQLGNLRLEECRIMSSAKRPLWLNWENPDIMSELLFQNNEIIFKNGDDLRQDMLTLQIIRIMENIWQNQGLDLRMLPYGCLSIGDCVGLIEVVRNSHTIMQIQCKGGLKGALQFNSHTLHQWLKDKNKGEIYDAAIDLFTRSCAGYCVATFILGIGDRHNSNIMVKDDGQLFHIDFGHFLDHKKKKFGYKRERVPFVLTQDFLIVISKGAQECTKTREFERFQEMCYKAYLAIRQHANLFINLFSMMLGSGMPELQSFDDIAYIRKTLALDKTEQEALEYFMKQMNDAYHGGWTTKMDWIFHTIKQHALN
Assay [12] can be described thus: Inhibition of PI3K/AKT/mTOR signalling pathway in human RV-1 cells assessed as decrease in AKT phosphorylation at S473 residue at 2.5 uM incubated for 4 hrs by immunoblot analysis. It counts as cell-based.
Assay [13] in a line: Induction of cell cycle arrest in human RV-1 cells assessed as accumulation of cells at G2/M phase at 2.5 uM incubated for 5 days in presence of MK2206 by propidium iodide staining based flow cytometric analysis (reference value: 11.4 %). Type of assay: functional. Particulars: time 5 day. For orientation: Flow cytometry measures light scatter and fluorescence of single cells or particles in a stream.

The target in assay [14] is Mitogen-activated protein kinase 8 (Homo sapiens) (UniProt P45983). Put plainly: Inhibition of JNK1 (unknown origin) assessed as remaining activity at 1 uM by Kinome scan method relative to control.
Mitogen-activated protein kinase 8 (Homo sapiens), sequence (P45983 whole entry): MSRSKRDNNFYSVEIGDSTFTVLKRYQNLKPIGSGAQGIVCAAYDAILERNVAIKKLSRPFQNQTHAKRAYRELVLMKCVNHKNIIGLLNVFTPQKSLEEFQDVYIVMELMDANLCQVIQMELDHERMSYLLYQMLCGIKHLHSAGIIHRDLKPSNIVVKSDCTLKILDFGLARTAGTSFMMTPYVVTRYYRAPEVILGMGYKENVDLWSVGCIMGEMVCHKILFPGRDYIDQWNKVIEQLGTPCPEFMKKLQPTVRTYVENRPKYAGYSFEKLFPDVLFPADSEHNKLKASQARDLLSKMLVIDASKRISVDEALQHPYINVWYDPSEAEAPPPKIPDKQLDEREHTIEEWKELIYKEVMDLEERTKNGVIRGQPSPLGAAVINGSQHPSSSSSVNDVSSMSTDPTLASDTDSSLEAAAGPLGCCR
Assay [15] deals with AP2-associated protein kinase 1 (Homo sapiens) (UniProt Q2M2I8). The experiment in a line: Inhibition of AAK1 (unknown origin) assessed as remaining activity at 1 uM by Kinome scan method relative to control.

Calls of active or inactive are those of the source. The calls are words filed in the database; no cut-off is given here.

Insulin receptor (Homo sapiens), sequence (P06213 28-758 limits assumed): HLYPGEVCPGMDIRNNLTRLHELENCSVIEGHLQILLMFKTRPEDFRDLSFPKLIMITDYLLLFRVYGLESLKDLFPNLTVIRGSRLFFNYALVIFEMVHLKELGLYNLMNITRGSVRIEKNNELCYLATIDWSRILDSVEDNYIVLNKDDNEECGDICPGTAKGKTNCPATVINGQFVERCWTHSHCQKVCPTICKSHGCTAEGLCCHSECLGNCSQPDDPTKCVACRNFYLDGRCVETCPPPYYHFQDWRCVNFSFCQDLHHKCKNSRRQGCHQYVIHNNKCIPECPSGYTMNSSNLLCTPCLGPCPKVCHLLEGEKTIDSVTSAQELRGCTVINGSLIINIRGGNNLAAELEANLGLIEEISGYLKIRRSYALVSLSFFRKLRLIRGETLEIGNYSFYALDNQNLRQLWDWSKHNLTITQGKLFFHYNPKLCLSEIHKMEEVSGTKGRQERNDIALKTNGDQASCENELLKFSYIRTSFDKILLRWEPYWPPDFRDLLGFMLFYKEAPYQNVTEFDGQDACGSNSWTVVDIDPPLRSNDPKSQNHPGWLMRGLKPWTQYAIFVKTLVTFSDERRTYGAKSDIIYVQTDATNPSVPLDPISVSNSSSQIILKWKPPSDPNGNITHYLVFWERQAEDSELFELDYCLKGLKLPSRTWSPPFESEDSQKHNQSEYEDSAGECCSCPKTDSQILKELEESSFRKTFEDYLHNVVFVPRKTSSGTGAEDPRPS
Insulin receptor (Homo sapiens), sequence (P06213 763-1382 limits assumed): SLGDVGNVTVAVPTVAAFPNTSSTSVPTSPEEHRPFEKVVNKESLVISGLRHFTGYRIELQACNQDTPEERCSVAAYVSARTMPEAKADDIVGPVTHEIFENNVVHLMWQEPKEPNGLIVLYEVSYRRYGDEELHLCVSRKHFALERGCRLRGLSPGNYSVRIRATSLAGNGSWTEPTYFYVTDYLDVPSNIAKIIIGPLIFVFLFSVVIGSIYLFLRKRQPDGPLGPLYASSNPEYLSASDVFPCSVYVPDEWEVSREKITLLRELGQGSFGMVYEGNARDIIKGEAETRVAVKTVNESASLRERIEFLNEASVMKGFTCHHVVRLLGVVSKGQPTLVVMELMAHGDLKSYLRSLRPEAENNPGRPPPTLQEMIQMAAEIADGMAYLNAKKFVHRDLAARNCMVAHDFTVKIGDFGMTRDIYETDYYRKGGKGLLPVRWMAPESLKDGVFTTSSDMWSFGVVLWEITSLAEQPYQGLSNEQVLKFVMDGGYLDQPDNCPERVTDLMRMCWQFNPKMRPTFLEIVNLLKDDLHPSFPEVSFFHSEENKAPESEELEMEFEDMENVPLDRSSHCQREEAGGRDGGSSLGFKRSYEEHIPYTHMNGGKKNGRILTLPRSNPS
Cyclin-dependent kinase 8 (Homo sapiens), sequence (P49336 whole entry): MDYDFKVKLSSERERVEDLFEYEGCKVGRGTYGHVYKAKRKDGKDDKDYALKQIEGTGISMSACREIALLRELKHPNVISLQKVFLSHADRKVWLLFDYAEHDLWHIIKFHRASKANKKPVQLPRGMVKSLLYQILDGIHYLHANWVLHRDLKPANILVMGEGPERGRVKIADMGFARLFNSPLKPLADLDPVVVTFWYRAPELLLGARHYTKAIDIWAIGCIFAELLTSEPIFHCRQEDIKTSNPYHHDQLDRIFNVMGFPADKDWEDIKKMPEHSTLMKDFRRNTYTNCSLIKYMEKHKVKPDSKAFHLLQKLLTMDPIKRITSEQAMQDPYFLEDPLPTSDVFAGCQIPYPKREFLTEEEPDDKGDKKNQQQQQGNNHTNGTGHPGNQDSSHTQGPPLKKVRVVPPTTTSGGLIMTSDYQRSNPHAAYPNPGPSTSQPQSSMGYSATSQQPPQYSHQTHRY
Myosin light chain kinase family member 4 (Homo sapiens), sequence (Q86YV6 whole entry): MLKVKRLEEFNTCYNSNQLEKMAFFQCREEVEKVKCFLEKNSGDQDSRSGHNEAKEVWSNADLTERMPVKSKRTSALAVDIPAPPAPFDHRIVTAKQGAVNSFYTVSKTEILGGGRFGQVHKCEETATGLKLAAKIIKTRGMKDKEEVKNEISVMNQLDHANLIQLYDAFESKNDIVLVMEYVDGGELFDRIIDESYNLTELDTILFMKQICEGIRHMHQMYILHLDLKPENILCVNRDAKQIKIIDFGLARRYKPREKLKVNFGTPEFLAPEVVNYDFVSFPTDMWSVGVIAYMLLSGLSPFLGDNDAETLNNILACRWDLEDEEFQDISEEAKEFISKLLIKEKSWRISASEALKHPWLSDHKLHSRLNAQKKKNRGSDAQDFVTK
Cyclin-dependent kinase 7 (Homo sapiens), sequence (P50613 whole entry, canonical isoform): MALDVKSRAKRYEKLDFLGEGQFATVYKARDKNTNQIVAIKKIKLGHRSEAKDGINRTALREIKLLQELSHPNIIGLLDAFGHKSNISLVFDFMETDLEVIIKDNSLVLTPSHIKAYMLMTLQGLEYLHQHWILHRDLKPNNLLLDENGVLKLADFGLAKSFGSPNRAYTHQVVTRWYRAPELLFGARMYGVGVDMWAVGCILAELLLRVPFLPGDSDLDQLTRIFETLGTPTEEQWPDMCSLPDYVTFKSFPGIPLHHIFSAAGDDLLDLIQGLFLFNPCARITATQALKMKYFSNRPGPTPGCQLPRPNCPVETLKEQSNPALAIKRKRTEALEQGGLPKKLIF

As for `C=CC(=O)Nc1cc(-n2c(=O)ccc3cnc4ccc(-c5ccc(NS(C)(=O)=O)cc5)cc4c32)ccc1C`, the result in assay [1] and in assay [7] was Active. Further, the Activity in assay [2] came out at 80%; in assay [3] it was 93%; in assay [4], 76%; in [5] it was 72%; in [6] it was 92%; in assay [8], 96%. For the same compound, the Activity in assay [9] was determined as 94%; in assay [10], 79%; in [11], 88%; in [13] it was 11.5%; in [14], 93%; in assay [15], 93%. Moreover, the inhibition result in [12] was “inactive”.
